Data on one substance can be found in patent US8686224B2, “Plant defense signal peptides” (priority 2005, dated 2014).

Entries after “also recorded” stand apart in the source; their conditions may differ.

The target in assay [1] is T1, AtPep1 receptor (At1g73080, AtPEPR1) (Arabidopsis thaliana, UniProt Q9SSL9).
T1 sequence (Q9SSL9 29-1123): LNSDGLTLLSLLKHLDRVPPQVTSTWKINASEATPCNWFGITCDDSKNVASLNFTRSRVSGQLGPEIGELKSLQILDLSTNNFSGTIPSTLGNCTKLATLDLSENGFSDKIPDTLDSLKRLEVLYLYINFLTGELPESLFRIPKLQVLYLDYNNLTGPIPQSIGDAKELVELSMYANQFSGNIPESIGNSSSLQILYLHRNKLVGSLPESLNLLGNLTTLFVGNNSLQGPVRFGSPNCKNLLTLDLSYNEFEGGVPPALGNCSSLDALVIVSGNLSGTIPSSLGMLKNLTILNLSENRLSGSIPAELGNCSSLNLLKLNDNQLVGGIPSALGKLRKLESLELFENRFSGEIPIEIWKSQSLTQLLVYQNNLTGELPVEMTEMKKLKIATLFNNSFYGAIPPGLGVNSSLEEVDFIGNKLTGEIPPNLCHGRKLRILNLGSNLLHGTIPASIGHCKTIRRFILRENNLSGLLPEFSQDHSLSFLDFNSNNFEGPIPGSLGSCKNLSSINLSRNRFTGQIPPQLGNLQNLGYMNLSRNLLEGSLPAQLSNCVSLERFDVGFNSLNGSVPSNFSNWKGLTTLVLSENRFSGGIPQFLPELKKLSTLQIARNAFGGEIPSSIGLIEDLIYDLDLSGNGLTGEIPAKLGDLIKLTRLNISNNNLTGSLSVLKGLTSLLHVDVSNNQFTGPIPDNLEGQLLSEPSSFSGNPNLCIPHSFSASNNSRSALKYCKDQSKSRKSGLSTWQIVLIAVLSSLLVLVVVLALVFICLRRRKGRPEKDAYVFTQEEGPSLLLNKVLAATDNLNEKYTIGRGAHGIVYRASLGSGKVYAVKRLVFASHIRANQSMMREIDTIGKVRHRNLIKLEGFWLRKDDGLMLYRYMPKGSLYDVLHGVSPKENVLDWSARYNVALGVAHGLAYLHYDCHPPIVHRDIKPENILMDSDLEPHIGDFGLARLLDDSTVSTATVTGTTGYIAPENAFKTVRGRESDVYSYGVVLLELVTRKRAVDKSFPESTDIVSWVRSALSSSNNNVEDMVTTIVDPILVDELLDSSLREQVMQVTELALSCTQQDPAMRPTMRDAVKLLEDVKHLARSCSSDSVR
The experiment in a line: Binding assay of 125I1-Tyr-AtPep1 with Arabidopsis suspension cultured cells.
Description: Binding assays. […] The filtered cells were washed three times with 5 mL of cold MS medium containing 3% sucrose, suspended in 1 mL MS medium containing 3% sucrose in a glass test tube, and analyzed for total radioactivity in a gamma-ray counter (Isodata 2020; Isodata Inc., Palatine, Ill.).

Assay [2] deals with Arabidopsis suspension cultured cells. As to the kind of experiment: Alkalinization assay with Arabidopsis suspension cultured cells. The assay is classed as cell-based, Arabidopsis thaliana. As to conditions: Arabidopsis suspension cultured cells, pH of media after 20 min. The procedure: For the alkalinization assay, cells suspensions are grown in a volume of 40 ml in a 125 ml flask. Tobacco and Arabidopsis cells are typically grown for 3-5 days before use. Tomato cells are typically grown for 4-7 days before use. Soybean cells are generally grown for 3-7 days before use. Preferably, cells are in mid to log or log phase when they are to be used for the alkalinization assay. A 1 ml pipette tip with the end cut off (to prevent clogging of the tip with the cells) is used to aliquot 1 ml of the cells from the suspension into a well in a 24-well culture cluster plate. The flask is swirled between aliquots to ensure that the cells remain evenly dispersed throughout the cell suspension and an roughly equivalent number of cells is provided to each well. The plate(s) are then shaken at 160 rpm for 1 hour. Small aliquots ([…]) of extracted peptide fractions are then added to the wells. After 20 min, the pH of the cell media is measured and recorded.
Alkalinization Assay. Arabidopsis suspension cells were grown with shaking in the dark in 125 mL flasks, using 40 mL NT media as previously described (Pearce et al. Proc. Natl. Acad. Sci. USA 98:12843-12847, 2001). The cells were transferred weekly (2.5 mL) and used for assays 3-5 days after transfer. One mL aliquots of cells were transferred to wells of 24-well culture plates and allowed to equilibrate for one hour while agitated on a rotary shaker at 160 rpm. Aliquots of 1-10 μL from extracts or fractions eluted from HPLC columns were added to cells and the pH of the media was monitored after 20 min.
Alkalinization assay. Medium alkalinization activity of Arabidopsis suspension cultured cells by AtPep1 analogs was analyzed as previously described for systemin (Pearce et al., Science 253:895-897, 1991), RALF (Pearce et al. Proc. Natl. Acad. Sci. USA 98:12843-12847, 2001), HypSys peptides (Pearce and Ryan. J. Biol. Chem. 278:30044-30050, 2003; Pearce et al., Nature 411:817-820, 2001), and AtPep1 (supra). The alkalinization activity of azido-Cys-AtPep1 were carried out after incubation the analog with cells in darkness for 10 min, when the pH was recorded.
Analogs of AtPep1 from the C-terminus of AtPep1 were synthesized and assayed in the alkalinization assay. One mL aliquots of 4 day old Arabidopsis cells were allowed to equilibrate on an orbital shaker at 180 rpm for one hour. A 10 μL aliquot of each peptide solution was added to the cells. Peptide concentrations of 0.25 nM, 2.5 nM, and 25 nM were tested. After 20 min, the pH of the media was recorded.
The 15-mer from the carboxy-terminus of AtPep1 ([…] (SEQ ID NO: 78)) was substituted with alanine at each position to assess which amino acids were necessary for the alkalinizing activity. […] The set of substituted 15-mer peptides was assayed using four-day-old Arabidopsis cells. […] of each peptide (2.5 pmoles) was added to 1 ml of cells to make a final concentration of 2.5 nM. After 20 min, the pH of the media was recorded. The data is the average of three separate experiments.

What is called Kd is the equilibrium constant for the complex coming apart. The low end stands for higher affinity, the high end for lower affinity.

In the case of H-ATKVKAKQRGKEKVSSGRPGQHN-OH [AtPep1], the Kd in assay [1] is 0.25 nM. In assay [2], the “activity in the alkalinization assay” value is “at sub-nanomolar concentrations, to cause an alkalinization response; also recorded: as active as the native AtPep1; also recorded: identical activities as the native peptides”. Besides, the EC50 in assay [2] (read-out: half-maximal activity in the alkalinization assay) was 0.25 nM.
